Experimental findings from paper PMC6934184, “Selective DNA-PKcs inhibition extends the therapeutic index of localized radiotherapy and chemotherapy” (The Journal of Clinical Investigation, 2019) are described below.

This assay concerns the target T1, PRKCQ (PKC theta) (Homo sapiens, UniProt Q04759).
T1 construct: purchased Thermo Fisher Scientific (Life Technologies) SelectScreen
Nature of the assay: SelectScreen Z'LYTE. It is filed as biochemical. Put shortly: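 Percent values come from Thermo SelectScreen profiling of NU5455, combining activity and binding assays. CSF1R was run in Z'LYTE format at Km app ATP, and CAMK1 in Adapta format with ATP listed at 10.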

T1 sequence (Q04759 whole entry): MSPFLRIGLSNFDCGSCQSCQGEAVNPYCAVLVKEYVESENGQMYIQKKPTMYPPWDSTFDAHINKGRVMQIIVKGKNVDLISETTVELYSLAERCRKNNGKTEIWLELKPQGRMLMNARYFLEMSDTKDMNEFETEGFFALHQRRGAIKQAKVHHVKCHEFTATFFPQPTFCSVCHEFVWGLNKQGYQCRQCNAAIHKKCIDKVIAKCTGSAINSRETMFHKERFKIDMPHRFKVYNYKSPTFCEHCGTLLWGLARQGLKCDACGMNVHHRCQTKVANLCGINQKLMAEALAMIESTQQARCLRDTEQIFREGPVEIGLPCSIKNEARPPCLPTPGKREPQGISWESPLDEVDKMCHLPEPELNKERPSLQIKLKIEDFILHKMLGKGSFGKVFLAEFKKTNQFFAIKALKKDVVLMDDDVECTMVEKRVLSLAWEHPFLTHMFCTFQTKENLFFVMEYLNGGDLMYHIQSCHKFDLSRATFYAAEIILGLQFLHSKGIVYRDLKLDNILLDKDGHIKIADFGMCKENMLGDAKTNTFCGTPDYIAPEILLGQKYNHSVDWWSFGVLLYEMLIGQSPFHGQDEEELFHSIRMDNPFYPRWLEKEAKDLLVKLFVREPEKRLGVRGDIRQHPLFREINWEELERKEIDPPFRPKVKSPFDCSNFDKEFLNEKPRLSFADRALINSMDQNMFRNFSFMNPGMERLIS

Regarding `CN(C(=O)CN1CCOCC1)c1ccc2sc3c(-c4cccc5c(=O)cc(N6CC7CCC(C6)O7)oc45)cccc3c2c1` [NU5455], the inhibition (in general, the drop in the measured response relative to a control, in per cent) at 1 µM is -3.7%.
